Data: US9744189B1, “Compositions of lithium salts and methods of use” (University of South Florida, priority 2013, dated 2017)
Read-outs that look alike come from different tables or passages of the source.

Legend:
[1] = for AUC(0-72): 0-72 h; for TMAX: noncompartmental analysis; for time of peak brain lithium level (FIG. 4-5): post-dose
Protocol: (§1) Male Sprague Dawley rats weighing 200-250 grams were housed in a vivarium with a 12 hour light-dark cycle. The rats were allowed to acclimate for a period of one week before any experiments were carried out, and were allowed free access to food and water throughout the experiment.
(§2) Animals in each treatment group were euthanized at 2, 24, 48, and 72 hours (n=3/time point) and blood was collected by cardiac puncture and carefully perfused with a pressure-controlled pump to maintain microvasculature integrity before removing brain tissue. Blood was centrifuged at 1600×g at room temperature for 10 minutes and plasma was separated. A 500 μl aliquot was diluted 10 fold in a 5% TCA and 10% IPA solution, vortexed and allowed to sit for 10 minutes in order to precipitate proteins. These aliquots were centrifuged at 3000×g for 30 minutes and the supernatant was transferred to clean tubes prior to measuring lithium content using atomic absorption spectroscopy (AAS). Brains were rinsed with PBS, weighed, and an equal volume of concentrated HNO3 was added. The brains were heated in nitric acid solution for 1 hour, allowed to cool to room temperature, then centrifuged at 3000×g for 1 hour. The supernatant was removed and diluted 10 fold in 10% IPA prior to measuring lithium content using AAS.
(§3) The reported parameters include CMAX, TMAX, area under curve (AUC), and apparent terminal half-life (HL_Lambda_z).
(§4) Lithium was measured using atomic absorption spectroscopy (AAS) (Shimadzu AA-6200; Shimadzu Scientific Instruments, Inc., Columbia, Md.). Peak height measurements were carried out referring to values obtained for standards of known concentrations. Lithium measurements were plotted using GraphPad PRISM software (GraphPad Software, Inc., La Jolla, Calif.) as mean±SEM and two tailed t-tests were used to assess the statistical significance at each time point for the pharmacokinetic curves. The criterion for rejection of the null hypothesis was p<0.05.

[2] = for AUC(0-72): 0-72 h; for TMAX: noncompartmental analysis; for time of peak lithium plasma level (FIG. 2-3): post-dose
Protocol: as §1, §2, §3, §4

in vivo [3] = conditions: male, Sprague-Dawley, rat, brain, oral, 4 mEq/kg
Protocol: as §1, §2, §3, §4

in vivo [4] = conditions: male, Sprague-Dawley, rat, plasma, oral, 4 mEq/kg
Protocol: as §1, §2, §3, §4

[5] = rats; carbonate vs chloride vs orotate; cited from earlier work
[6] = previous reports; cited from earlier work
[7] = cited from earlier work
[8] = Brain, rats, 4 mEq/kg oral gavage
[9] = Blood, rats, 4 mEq/kg oral gavage

Structure (SMILES) | AUC(0-72) [1, 8] | TMAX [1, 8] | brain lithium level at 24 hours ([1]; brain) | brain lithium level by 72 hours ([1]; brain) | time of peak brain lithium level (FIG. 4-5) ([1]; brain, rats) | CMAX [2, 9] | AUC(0-72) [2, 9] | TMAX [2, 9] | lithium plasma level by 48 hours ([2]; plasma) | lithium plasma level by 72 hours ([2]; plasma) | time of peak lithium plasma level (FIG. 2-3) ([2]; plasma, rats) | differences in uptake, distribution and excretion of the lithium ion [5] | further results
CC(O)C(=O)[O-].[Li+] (stereo not drawn) [Lithium Lactate, lithium lactate] | 152.0 µg·h/g | 24 h | around 4 μg/ml | negligible levels | 24 h | 4.54 µg/mL | 157.2 µg·h/mL | 24 h | about 0.5 μg/ml | around 0 μg/ml | 24 h | – | HL_Lambda_z (apparent terminal half-life) [1, 8]: 13.0 h; HL_Lambda_z (apparent terminal half-life) [2, 9]: 6.9 h
O=C([O-])c1ccccc1O.[Li+] [Lithium Salicylate, lithium salicylate] | 153.1 µg·h/g | 48 h | – | – | 48 h | 2.21 µg/mL | 121.8 µg·h/mL | 24 h | – | – | around 48 hours | – | concentration at 24 h (in vivo [3]): ~2500 ng/mL; concentration at 48 h (in vivo [3]): 3000 ng/mL; concentration at 72 h (in vivo [3]): 2000 ng/mL; concentration at 24 h (in vivo [4]): 2100 ng/mL; concentration at 48 h (in vivo [4]): 2000 ng/mL; concentration at 72 h (in vivo [4]): ~250 ng/mL
O=C([O-])[O-].[Li+].[Li+] [lithium carbonate, reference compound] | – | – | 8 µg/mL | about 0.5 μg/ml | 24 h | – | – | – | about 0.5 μg/ml | around 0 μg/ml | 24 h | no differences | time to elimination [6]: ≤ 48 h; brain lithium level at 48 hours ([1]; brain, 48 hours): about 3.8 μg/ml; peak lithium plasma level relative to lithium lactate ([2]; plasma, 24 hours): about 2.5 times; lithium plasma level at 24 hours (peak) ([2]; plasma, 24 hours post-dose): about 12 μg/ml
[Cl-].[Li+] [lithium chloride] | – | – | – | – | – | – | – | – | – | – | – | no differences | –
O=C([O-])c1cc(=O)[nH]c(=O)[nH]1.[Li+] [lithium orotate] | – | – | – | – | – | – | – | – | – | – | – | no differences | –
[Li] [lithium] | – | – | – | – | – | – | – | – | – | – | – | – | elimination half-life ([7]; acute treatment): 24 h; CNS levels of lithium relative to plasma levels ([7]; in vivo): approximately 40%; serum levels considered toxic ([7]; in vivo): ≥ 2.0; serum levels that increase the likelihood of toxicity and detrimental effects ([7]; in vivo): greater than 1.5 mEq/l; time to peak plasma levels after overdoses ([7]; overdose): 72 h; elimination half-life ([7]; some chronically treated individuals): ≤ 60 h
